Experimental findings from patent publication US20250170240A1, “MODIFIED INVARIANT NATURAL KILLER T CELLS EXPRESSING A CHIMERIC ANTIGEN RECEPTOR AND USES THEREOF” (Tinkeso Therapeutics, Inc., priority 2022, published 2025) are described below.

Where only a bound is given, the exact number is not on record here.

Experiment [1] relates to CD1d^+ target cells. Kind of experiment: Luciferase-based killing assay, glycolipid- or DMSO-pulsed CD1d+ target cells. The class given is cell-based, human. Particulars: effector thawed iNKT47 CD19 CAR (allo), FIG. 13B. On the procedure:
Luciferase-Based Killing Assay: αGalCer or DMSO pulsed target cells were prepared by incubating target cells (2×10^5/mL) at 37° C., 5% CO2 with αGalCer (200 ng/ml) or DMSO (1:500 of 10% stock) overnight and used for cytotoxicity assays after spinning to remove medium containing αGalCer or DMSO. Luciferase-expressing target cells (1×104 in 50 μL per well) were incubated with 50 μL of INKT cells per well at different effector T cell: target cell (E/T) ratios in quadruplicate in a 96-well flat-bottom white polystyrene microplate (Corning, Cat No. 3912). A spontaneous or maximal killing was set up by adding 50 μL per well of culture medium or 1% Triton X-100 instead of INKT cells, respectively. After a standard 4 h or 16 h (as indicated) incubation at 37° C., 10 μL of D-luciferin (1:10 of 30 mg/ml stock) or 50 μL (1:50 of 30 mg/mL) (Caliper Life Sciences, Cat No. XR-1001) was added to each well. Luciferase activity was measured using a Synergy 2 microplate reader (BioTek). Percent specific lysis was calculated as follows: […]

The subject of experiment [2] is CD1d^+ target cells. Put plainly: Cytokine release assay (IFN-γ ELISA), glycolipid-pulsed CD1d+ target cells. Particulars: pulsed MV4:11-hfflucN; 3-month cultured INKT47 CD19 CAR (allo) and iNKT48 CD19 CAR/GFP (allo); FIG. 13C. It counts as cell-based, human. On the procedure: Cytokine Release Assays: Cytokine release assays were performed by co-culturing 1-2×10^5 T cells with 2×10^4 target cells per well in duplicate in 96-well flat-bottom plates. After 24 h, supernatants were assayed using a LEGEND MAX Human IFN-γ ELISA kit (BioLegend, Cat No. 430107).
Background: In an ELISA, binding on a coated surface is turned into a signal by an enzyme label.

Consider `CCCCCCCCCCCCCC[C@@H](O)[C@@H](O)[C@H](CO[C@H]1O[C@H](CO)[C@H](O)[C@H](O)[C@H]1O)NC(=O)CCCCCCCCCCc1ccc(F)cc1` [7DW8-5], for which the entries for the “potency relative to αGalCer in sensitizing CD1d+ target cells” value with CD1d^+ target cells [1] (Molm13) and in the experiment on CD1d^+ target cells [1] (THP1) were “at least 16 fold” and at least 64 fold, respectively. Further, the “potency in stimulating iNKT cells to produce IFN-γ” value in the experiment with CD1d^+ target cells [2] was “more potent than αGalCer”.
